These results are taken from patent US11912668B2, “GCN2 and perk kinase inhibitors and methods of use thereof” (Deciphera Pharmaceuticals, LLC, priority 2020, dated 2024).

pIC50: −log10 of the molar value. Bounds are passed on as bounds.

The test system of assay [1] is CCRF-CEM leukemia cells. Briefly: CCRF-CEM ASNase cell proliferation assay, phenotypic assay for cellular inhibition of GCN2. It counts as cell-based. The note with it: Homo sapiens; ASNase treated CCRF-CEM cells, 1 mU/mL ASNase, 72 h. In a few lines: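 Cells were seeded at ten thousand per well in RPMI-1640 with 10% heat-inactivated FBS and treated in triplicate with serially diluted compound plus 1 mU/mL ASNase for 72 h at 37 °C, 5% CO2. Resazurin was then added for 6 h, with fluorescence read at ex 540/em 600 nm to derive IC50 values.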

For assay [2], the target named is PERK kinase (Homo sapiens (Human), UniProt Q9NZJ5). Briefly: Biochemical assay for PERK (coupled pyruvate kinase/lactate dehydrogenase assay). The note with it: 1 mM ATP, rate from 2-3 h time frame. In a few lines:
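Coupled pyruvate kinase/lactate dehydrogenase readout of ATP hydrolysis via NADH oxidation (A340), 10 nM PERK, 0.25 mg/mL myelin basic protein, 1 mM ATP, pH 7.5 Tris/MgCl2 buffer, 1% DMSO. Absorbance followed 6 h at 30° C; rate from the 2-3 h window, normalised to no-compound and known-inhibitor controls, IC50 fitted.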

Assay [3] relates to ATF4 in HCT116 colorectal cancer cells. Briefly: HCT116 amino acid starved (-AA) ATF4 assay (Western blot). It counts as cell-based. The note with it: Homo sapiens, HCT-116, 4 h. The method, then: (§1) HCT116 colorectal cancer cells (catalog #CCL-247) were obtained from the American Type Culture Collect (ATTC, Manassas, VA). Briefly, cells were grown in RPMI 1640 supplemented with 10% heat inactivated fetal bovine serum (Invitrogen, Carlsbad, CA) and 1% Penicillin/Streptomycin/L-Glutamine at 37° C., 5% CO2, and 95% humidity. Cells were expanded until reaching 70-95% confluency at which point they were subcultured or harvested for assay use. Cells were seeded in 12-well culture plate at five hundred thousand cells per well in 1 mL complete growth medium and incubated overnight at 37° C., 5% CO2, and 95% humidity. The next day each well was replaced with 1 mL Earle's Balanced Salt Solution (EBSS, Invitrogen, Carlsbad, CA) supplemented with 10% Dialyzed Fetal Bovine Serum, 5.5 mM Glucose, 1% Penicillin/Streptomycin and 1% Vitamin solution (thermo #11120052). A serial dilution of test compound was dispensed into well. Plates were incubated for 4 h at 37° C., 5% CO2, and 95% humidity. At the end of the incubation, cells were washed with PBS supplemented with 1× Halt protease inhibitor, 1× Halt phosphatase inhibitor, 1× Sigma phosphatase inhibitor cocktail 2 and 1×EDTA and then lysed with M-PER Mammalian Protein Extraction Reagent supplemented with 3× of the inhibitor mix as described above. Cell lysates were sonicated with water bath sonicator (Qsonica, Newtown, CT) and supernatants were boiled with SDS buffer and reducing agent. Western blot was performed on each lysate to quantify phospho-GCN2 (Thr899), total GCN2, ATF4 and beta-Actin. Membranes were imaged with LI-COR Odyssey CLx Imaging System (LI-COR, Lincoln, NE). Data were analyzed using GraphPad Prism software (GraphPad, San Diego, CA) to calculate IC50 values.

Assay [4] deals with phospho-GCN2 (Thr899) in HCT116 colorectal cancer cells. Description: HCT116 amino acid starved (-AA) phospho-GCN2 assay (Western blot). Conditions: Homo sapiens, HCT-116, 4 h, read-out: HCT116-AA pGCN2 Western Blot. It counts as cell-based. The method, then:
as §1

The subject of assay [5] is ATF4 in CCRF-CEM leukemia cells (PERK). Briefly: CCRF-CEM TG ATF4 ELISA, phenotypic assay for cellular inhibition of PERK preactivated by thapsigargin. Conditions: Homo sapiens; Thapsigargin (1 μM) stimulated CCRF-CEM cells. It counts as cell-based.
In assay [6] the target is GCN2 kinase (Homo sapiens (Human), UniProt Q9P2K8). Briefly: Biochemical assay for GCN2 (TR-FRET kinase activity assay). The note with it: 1 mM ATP, 3-hour incubation. An outline of the steps:
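TR-FRET assay with 2 nM GCN2, 130 nM GFP-eIF2α substrate, 0.2 mg/mL E. coli tRNA and 1 mM ATP; compounds (0.5% DMSO) reacted 3 h. Stopped with 20 mM EDTA plus 2 nM Tb-anti-peIF2α (pSer52), 60 min RT; 520/490 ratio converted to % inhibition, IC50 from four-parameter fit.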

Chain of GCN2 kinase (Q9P2K8 whole entry): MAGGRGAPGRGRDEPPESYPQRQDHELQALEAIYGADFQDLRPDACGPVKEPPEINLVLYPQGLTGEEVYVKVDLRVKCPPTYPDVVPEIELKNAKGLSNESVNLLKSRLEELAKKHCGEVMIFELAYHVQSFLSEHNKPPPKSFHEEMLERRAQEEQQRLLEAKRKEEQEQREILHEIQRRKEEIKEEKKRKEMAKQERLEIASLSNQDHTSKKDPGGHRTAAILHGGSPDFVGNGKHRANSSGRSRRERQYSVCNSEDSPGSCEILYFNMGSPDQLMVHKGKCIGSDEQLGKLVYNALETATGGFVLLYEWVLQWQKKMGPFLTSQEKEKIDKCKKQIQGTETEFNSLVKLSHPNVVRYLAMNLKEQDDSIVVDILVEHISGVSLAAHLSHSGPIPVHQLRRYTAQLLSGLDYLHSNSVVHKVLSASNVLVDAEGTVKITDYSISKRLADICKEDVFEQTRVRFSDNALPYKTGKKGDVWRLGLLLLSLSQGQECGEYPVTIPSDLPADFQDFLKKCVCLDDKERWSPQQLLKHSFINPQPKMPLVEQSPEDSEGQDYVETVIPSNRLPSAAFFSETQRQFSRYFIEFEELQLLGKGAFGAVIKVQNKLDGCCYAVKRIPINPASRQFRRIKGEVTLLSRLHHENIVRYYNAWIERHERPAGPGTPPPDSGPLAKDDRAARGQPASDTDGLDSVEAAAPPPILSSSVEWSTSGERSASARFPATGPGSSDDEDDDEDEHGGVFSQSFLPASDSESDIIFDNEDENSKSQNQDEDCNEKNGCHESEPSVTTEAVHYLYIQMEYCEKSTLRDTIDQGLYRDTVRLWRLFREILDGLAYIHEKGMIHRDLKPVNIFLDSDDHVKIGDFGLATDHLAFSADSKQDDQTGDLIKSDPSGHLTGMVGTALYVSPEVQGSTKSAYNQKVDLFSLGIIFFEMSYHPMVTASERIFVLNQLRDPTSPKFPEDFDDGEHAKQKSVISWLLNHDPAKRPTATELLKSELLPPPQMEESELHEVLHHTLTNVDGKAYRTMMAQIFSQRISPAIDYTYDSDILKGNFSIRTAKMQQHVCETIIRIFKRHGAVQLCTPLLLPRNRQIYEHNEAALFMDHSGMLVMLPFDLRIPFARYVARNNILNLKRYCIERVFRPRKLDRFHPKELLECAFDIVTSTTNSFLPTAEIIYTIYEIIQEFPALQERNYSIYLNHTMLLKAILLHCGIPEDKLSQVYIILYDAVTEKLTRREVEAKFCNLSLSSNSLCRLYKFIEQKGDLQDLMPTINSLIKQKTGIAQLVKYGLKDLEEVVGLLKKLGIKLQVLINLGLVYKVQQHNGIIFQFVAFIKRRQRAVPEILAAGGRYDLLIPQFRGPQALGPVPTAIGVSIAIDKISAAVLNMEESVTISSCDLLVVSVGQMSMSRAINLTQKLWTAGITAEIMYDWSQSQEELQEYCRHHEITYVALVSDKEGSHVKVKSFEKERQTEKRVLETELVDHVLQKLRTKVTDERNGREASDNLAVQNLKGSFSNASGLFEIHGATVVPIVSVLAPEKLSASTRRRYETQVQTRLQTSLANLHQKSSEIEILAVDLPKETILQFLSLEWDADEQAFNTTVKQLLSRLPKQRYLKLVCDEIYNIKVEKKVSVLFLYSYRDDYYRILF
Chain of PERK kinase (Q9NZJ5 other isoform, or with tags, fused parts or gaps): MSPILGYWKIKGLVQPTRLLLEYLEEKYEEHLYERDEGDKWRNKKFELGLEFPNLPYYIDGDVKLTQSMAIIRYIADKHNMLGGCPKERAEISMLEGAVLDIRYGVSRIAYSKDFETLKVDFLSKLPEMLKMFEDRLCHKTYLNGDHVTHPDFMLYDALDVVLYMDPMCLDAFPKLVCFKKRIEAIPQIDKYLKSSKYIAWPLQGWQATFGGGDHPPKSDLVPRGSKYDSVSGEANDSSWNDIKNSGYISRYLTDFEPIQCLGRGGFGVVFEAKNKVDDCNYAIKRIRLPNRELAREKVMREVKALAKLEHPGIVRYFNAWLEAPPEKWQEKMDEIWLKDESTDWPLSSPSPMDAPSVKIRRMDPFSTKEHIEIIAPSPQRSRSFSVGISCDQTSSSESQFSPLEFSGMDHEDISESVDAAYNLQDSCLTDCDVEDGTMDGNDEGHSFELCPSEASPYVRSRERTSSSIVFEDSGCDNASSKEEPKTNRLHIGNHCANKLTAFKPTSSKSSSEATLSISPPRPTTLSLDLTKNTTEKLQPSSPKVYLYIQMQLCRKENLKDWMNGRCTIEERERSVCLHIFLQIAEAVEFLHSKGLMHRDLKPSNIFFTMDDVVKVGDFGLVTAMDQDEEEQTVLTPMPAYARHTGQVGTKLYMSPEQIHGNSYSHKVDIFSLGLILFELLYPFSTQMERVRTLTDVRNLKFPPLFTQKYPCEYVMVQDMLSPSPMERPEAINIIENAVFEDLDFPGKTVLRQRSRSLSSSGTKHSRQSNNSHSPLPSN

Turning to `CNc1ncc2cc(-c3cccc(NS(=O)(=O)c4cc(Cl)c(OC)cc4Cl)c3F)c(NC)nc2n1` [Example 132], the pIC50 in assay [1] is at least 7.00; in assay [2] it was at least 7.00; in assay [3], at least 7.00; in assay [4], at least 7.00; in assay [5], 6.00 to 6.30; in assay [6], at least 7.00.

For the molecule `CNc1nc2nc(N)ncc2cc1-c1cc(F)cc(NS(=O)(=O)c2cc(Cl)cnc2OC)c1` [Example 96], the pIC50 in assay [1] is 6.30 to 7.00; in assay [2], 6.30 to 7.00; in assay [3] it was 6.30 to 7.00; in assay [4], at least 7.00; in assay [5], 5.00 to 6.00; in assay [6], at least 7.00.

Regarding `CNc1cc2nc(C)c(-c3cc(NS(=O)(=O)c4cc(Cl)cnc4OC)ccc3F)cc2cn1` [Example 44], the pIC50 in assay [1] was at least 7.00; in assay [2], at least 7.00; in assay [3], at least 7.00; in assay [4], at least 7.00; in assay [5], 5.00 to 6.00; in assay [6], at least 7.00.

On to `COc1nc2nc(N)ncc2cc1-c1ccnc(NS(=O)(=O)c2cc(Cl)cnc2OC)c1F` [Example 135], for which the pIC50 in assay [1] was 6.00 to 6.30; in assay [2], 6.30 to 7.00; in assay [3], 5.00 to 6.00; in assay [4], 6.30 to 7.00; in assay [5], 5.00 to 6.00; in assay [6], at least 7.00.

With `COc1ncc(Cl)cc1S(=O)(=O)Nc1cccc(-c2cc3cnc(Nc4cnn(C)c4)nc3nc2C)c1F` [Example 88], the pIC50 in assay [1] was at least 7.00; in assay [2], at least 7.00; in assay [3] it was at least 7.00; in assay [4], at least 7.00; in assay [5], 6.30 to 7.00; in assay [6], at least 7.00.

As for `CNc1ncc2cc(-c3cc(NS(=O)(=O)c4cc(Cl)cnc4OC)ccc3F)c(C)nc2n1` [Example 38], the pIC50 in assay [1] is 6.30 to 7.00; in assay [2], 6.30 to 7.00; in assay [3], 6.30 to 7.00; in assay [4] it was at least 7.00; in assay [5], 5.00 to 6.00; in assay [6] it was at least 7.00.

Take `COc1ncc(Cl)cc1S(=O)(=O)Nc1cccc(-c2cc3cnc(NC(C)=O)cc3nc2C)c1F` [Example 84]: the pIC50 in assay [1] was at least 7.00; in assay [2] it was at least 7.00; in assay [3], at least 7.00; in assay [4], at least 7.00; in assay [5] it was 6.30 to 7.00; in assay [6], at least 7.00.

Consider `CNc1ncc2cc(-c3cccc(NS(=O)(=O)c4cc(Cl)cnc4OC)c3F)ccc2n1` [Example 36], for which the pIC50 is at least 7.00 in assay [1]; at least 7.00 in assay [2]; at least 7.00 in assay [3]; at least 7.00 in assay [4]; 5.00 to 6.00 in assay [5]; at least 7.00 in assay [6].

As to `CNc1ncc2cc(-c3cc(NS(=O)(=O)c4cc(Cl)cnc4OC)ccc3F)c(NC)nc2n1` [Example 39], the pIC50 in assay [1] is 6.30 to 7.00; in assay [2] it was 6.30 to 7.00; in assay [3], 6.30 to 7.00; in assay [4], at least 7.00; in assay [5], 5.00 to 6.00; in assay [6], at least 7.00.

For the molecule `CNc1nc2nc(NC3CC3)ncc2cc1-c1cccc(NS(=O)(=O)c2cc(Cl)cnc2OC)c1F` [Example 111], the pIC50 in assay [1] was 6.30 to 7.00; in assay [2], 6.30 to 7.00; in assay [3] it was at least 7.00; in assay [4] it was 6.30 to 7.00; in assay [5], 5.00 to 6.00; in assay [6], at least 7.00.

`CNc1ncc2cc(-c3cccc(NS(=O)(=O)c4cc(Cl)cnc4OC)c3Cl)ccc2n1` [Example 62]: the pIC50 is at least 7.00 in assay [1]; at least 7.00 in assay [2]; 6.30 to 7.00 in assay [3]; at least 7.00 in assay [4]; 5.00 to 6.00 in assay [5]; at least 7.00 in assay [6].

For `CNc1ncc2cc(-c3cccc(NS(=O)(=O)c4cc(Cl)cnc4NC4CC4)c3F)c(NC)nc2n1` [Example 137], the pIC50 in assay [1] is at least 7.00; in assay [2] it was 6.30 to 7.00; in assay [3] it was at least 7.00; in assay [4], at least 7.00; in assay [5], 5.00 to 6.00; in assay [6], at least 7.00.

With `COc1ncc(Cl)cc1S(=O)(=O)Nc1cccc(-c2cc3cnc(N)cc3nc2C)c1Cl` [Example 121], the pIC50 in assay [1] was at least 7.00; in assay [2], at least 7.00; in assay [3], at least 7.00; in assay [4] it was at least 7.00; in assay [5], 6.30 to 7.00; in assay [6], at least 7.00.

As for `COc1ncc(Cl)cc1S(=O)(=O)Nc1cc(F)cc(-c2cc3cnc(Nc4cnn(C)c4)nc3nc2C)c1` [Example 87], the pIC50 in assay [1] is at least 7.00; in assay [2], at least 7.00; in assay [3] it was at least 7.00; in assay [4], at least 7.00; in assay [5] it was 5.00 to 6.00; in assay [6] it was at least 7.00.

Take `COc1ncc(Cl)cc1S(=O)(=O)Nc1cc(F)cc(-c2cc3cnc(N)nc3nc2N)c1` [Example 92]: the pIC50 in assay [1] was at least 7.00; in assay [2] it was at least 7.00; in assay [3], at least 7.00; in assay [4], at least 7.00; in assay [5], 5.00 to 6.00; in assay [6] it was at least 7.00.

Take `CNc1ncc2cc(-c3cccc(NS(=O)(=O)c4cc(Cl)cnc4OC)c3)c(N)nc2n1` [Example 64]: the pIC50 in assay [1] is at least 7.00; in assay [2], 6.30 to 7.00; in assay [3], at least 7.00; in assay [4] it was at least 7.00; in assay [5], 5.00 to 6.00; in assay [6], at least 7.00.

In the case of `CNc1cc2nc(C)c(-c3cc(NS(=O)(=O)c4cc(Cl)cnc4OC)cc(F)c3F)cc2cn1` [Example 143], the pIC50 in assay [1] was at least 7.00; in assay [2], at least 7.00; in assay [3] it was at least 7.00; in assay [4], at least 7.00; in assay [5], 5.00 to 6.00; in assay [6] it was at least 7.00.

As for `CNc1ncc2cc(-c3cccc(NS(=O)(=O)c4cc(Cl)cnc4OC)c3F)c(N)nc2n1` [Example 61], the pIC50 was at least 7.00 in assay [1]; at least 7.00 in assay [2]; at least 7.00 in assay [3]; at least 7.00 in assay [4]; 6.30 to 7.00 in assay [5]; at least 7.00 in assay [6].

As to `CNc1ncc2cc(-c3cc(NS(=O)(=O)c4cc(Cl)cnc4OC)ccc3C)cnc2n1` [Example 30], the pIC50 in assay [1] is at least 7.00; in assay [2], 6.30 to 7.00; in assay [3] it was at least 7.00; in assay [4], at least 7.00; in assay [5], 5.00 to 6.00; in assay [6] it was at least 7.00.

Consider `CNc1cc2nc(C)c(-c3cc(NS(=O)(=O)c4cc(Cl)cc(CO)c4Cl)c(F)cc3F)cc2cn1` [Example 22], for which the pIC50 in assay [1] is at least 7.00; in assay [2], at least 7.00; in assay [3], at least 7.00; in assay [4] it was at least 7.00; in assay [5], 5.00 to 6.00; in assay [6], at least 7.00.

On to `COc1nc2nc(N)ncc2cc1-c1cc(F)cc(NS(=O)(=O)c2cc(Cl)cnc2OC)c1` [Example 93], for which the pIC50 is 6.30 to 7.00 in assay [1]; 6.30 to 7.00 in assay [2]; 6.30 to 7.00 in assay [3]; at least 7.00 in assay [4]; 5.00 to 6.00 in assay [5]; at least 7.00 in assay [6].

Take `CNc1ncc2cc(-c3c(F)ccc(NS(=O)(=O)c4cc(Cl)cnc4OC)c3F)c(C)nc2n1` [Example 27]: the pIC50 in assay [1] was at least 7.00; in assay [2] it was at least 7.00; in assay [3], at least 7.00; in assay [4] it was at least 7.00; in assay [5], 5.00 to 6.00; in assay [6] it was at least 7.00.

As to `COc1ncc(Cl)cc1S(=O)(=O)Nc1cccc(-c2ccc3nc(NC(C)=O)ncc3c2)c1F` [Example 35], the pIC50 in assay [1] was at least 7.00; in assay [2], 6.30 to 7.00; in assay [3], at least 7.00; in assay [4], at least 7.00; in assay [5], 5.00 to 6.00; in assay [6], at least 7.00.
